Data as given in patent publication US6916446B1, “Bioreactor method, apparatus and product thereby” (The United States of America as represented by the …, priority 2002, dated 2005).
“And” between values parts separate entries of the source, which are not always exact repeats. Identical values can stand only once. Like-named read-outs stand apart in the source and are kept apart here.

Key:
strain IMB-1 [1] = test: Growth of strain IMB-1 on substrates in mineral salts medium (Balch tubes)
strain IMB-1 [2] = test: 14C-MeBr oxidation assay on washed cell suspensions; type: cell-based, strain IMB-1 (ATCC 202197); settings: for MeBr oxidized: cells grown on the substrate indicated; for rate of MeBr oxidation, normalized for cell densities: cells grown on methylamine
strain IMB-1 [3] = test: Batch oxidation of MeBr in bottles containing cell suspensions of strain IMB-1; type: cell-based, strain IMB-1 (ATCC 202197); parameters: MeBr Oxidation Rate per Cell: unit not given here; settings: for CO2 Production Rate: corrected for respiration
strain IMB-1 [4] = test: Closed-system re-circulating bioreactor with washed cell suspension of strain IMB-1; type: cell-based, strain IMB-1 (ATCC 202197)
Experimental: Procedures for forming the methylotrophic bacterium 18 within the bioreactor 10 include, for example and without limitation, strain IMB-1 being grown aerobically in batch mode using pulsed additions of MeBr for use as an inoculum for the bioreactor. Additions of MeBr from about 0.01 to about 0.1 g were made approximately daily for several weeks. Cells (1 L) were grown to elevated density (approximately 1.5×10^8 cells/cm^3) in stoppered, 2-L flasks with rotary shaking. Growth occurred in mineral salts media containing mono- and dibasic phosphate (ΣPO4^31 '=1.4 mM) as well as sulfate and trace minerals (see e.g. Schaefer, J. K. and R. S. Oremland, Oxidation of Methyl Halides by the Facultative Methylotroph Strain IMB-1. Appl. Environ. Microbiol. 65 (1999): pp 5035-5041) the disclosure of which is hereby incorporated by reference. Media concentrations were tripled in order to provide additional nutrients and buffer capacity. Cells were grown at about 28° C. Cells were washed and re-suspended to 0.5 L in fresh media and transferred to the gas-washing bottle of the bioreactor having an initial cell density approximately equal to 3×10^8 cells/cm^3. Once the methylotrophic bacterium 18 constitutes part of the biofilter 16, the methyl halide is pumped from the reservoir 14 to the biofilter 16 for direct oxidation.
The biofilter 16 includes a mass of methylotrophic bacteria 18 within a container for bio-degradation of the methyl halides 30. The biofilter 16 constitutes the active surface of the bioreactor 10. The initial cell density was 3×10^8 cells/cm^3. The peristaltic pump 12 was used to circulate the methyl halide 30 gas in this system at a flow rate of 0.2 liter/min through inert rubber tubing (Pharmed), manufactured by Cole Parmer of Vernon Hills, Ill., and having 0.4 cm I.D. Stainless steel tubing (0.4 cm I.D.) was used to connect the components of the bioreactor 10. Methane (CH4) was added (3.2 g/m^3) to serve as a control and an internal standard.
A closed-system bioreactor was built using the general design of FIG. 1 and employed for testing on a laboratory bench. The bioreactor was started with 0.5 L of growing culture of methylotrophic bacteria strain IMB-1 and removed MeBr at fumigation concentrations (>17 g/m^3) from re-circulating air. Strain IMB-1 grew to high cell densities (5×10^9 cells/cm^3) in the bioreactor within several days using pulsed additions of MeBr as the sole carbon and energy source. The addition of the MeBr was done as a gas. Bacterial oxidation of MeBr produced CO2 and hydrobromic acid (HBr) which could be neutralized by addition of NaOH. Strain IMB-1 was capable of sustained oxidation of large amounts of MeBr (16 g in 46 days). […] Oxidation of MeBr was unaffected by the presence of elevated dissolved solutes (>26 g/kg) that approached the salinity of seawater. Strain IMB-1 grown on MeBr was 7 times more efficient at removing MeBr from the headspace of flasks than cultures grown on glucose (55 vs. 8×10^−15 g MeBr/cell/hr, respectively). An open-system bioreactor having 10 L of growing culture used a continuous supply of MeBr (21.2 g/m^3 in air). Growth of strain IMB-1 was continuous and 80 g of MeBr was removed from the air supply in 15 days.

strain IMB-1 [5] = test: Open-system bioreactor, 10 L growing culture, continuous supply of MeBr; type: cell-based, strain IMB-1 (ATCC 202197); settings: in 15 days; 21.2 g/m^3 MeBr in air, 10 L culture
Description: The bioreactor may be designed to maximize the rate of oxidation of methyl bromide, particularly when using strain IMB-1. For example, without limitation, a twelve (12)-liter fermenter may be used to grow 10-L of cells of IMB-1 in batch culture for flow-through. Preferably, the fermenter is used in continuous-flow mode to grow IMB-1 using 21.2 g/m^3 MeBr as the feedstock. Use of strain 1 IMB-1 in a bioreactor is used in the present invention to directly oxidize various concentrations of the methyl halide, preferably methyl bromide or methyl iodide, for example without limitation high concentrations of approximately 30,000 ppm or 125 g/m^3. Direct oxidation of methyl bromide is most preferred.
A closed-system bioreactor was built using the general design of FIG. 1 and employed for testing on a laboratory bench. The bioreactor was started with 0.5 L of growing culture of methylotrophic bacteria strain IMB-1 and removed MeBr at fumigation concentrations (>17 g/m^3) from re-circulating air. Strain IMB-1 grew to high cell densities (5×10^9 cells/cm^3) in the bioreactor within several days using pulsed additions of MeBr as the sole carbon and energy source. The addition of the MeBr was done as a gas. Bacterial oxidation of MeBr produced CO2 and hydrobromic acid (HBr) which could be neutralized by addition of NaOH. […]

[6] = test system: Bacillus anthracis (anthrax) and its spores; settings: cited from earlier work
[7] = 0 cells
[8] = substrate as electron donor / carbon and energy source
[9] = 3 × 10^7 cells/cm^3, 0.76 mg MeBr added
[10] = 3 × 10^7 cells/cm^3, 1.36 mg MeBr added
[11] = 3 × 10^7 cells/cm^3, 5.30 mg MeBr added
[12] = 3 × 10^8 cells/cm^3, 0.76 mg MeBr added
[13] = 3 × 10^8 cells/cm^3, 1.36 mg MeBr added
[14] = 3 × 10^8 cells/cm^3, 5.30 mg MeBr added
[15] = 3 × 10^9 cells/cm^3, 0.76 mg MeBr added
[16] = 3 × 10^9 cells/cm^3, 1.36 mg MeBr added
[17] = 3 × 10^9 cells/cm^3, 5.30 mg MeBr added

O=C(O)CCC(=O)O [succinate]
growth of strain IMB-1 on the substrate (in words) (strain IMB-1 [1]; [8]): no growth occurred

O=CO [formate]
growth of strain IMB-1 on the substrate (in words) (strain IMB-1 [1]): no growth occurred

O=C(O)CC(O)(CC(=O)O)C(=O)O [citrate]
growth of strain IMB-1 on the substrate (in words) (strain IMB-1 [1]; [8]): no growth occurred

CC(=O)O [acetate]
growth of strain IMB-1 on the substrate (in words) (strain IMB-1 [1]): grows

CBr [MeBr, methyl bromide]
MeBr oxidized (strain IMB-1 [2]): 1.4 pmol/10^6 cells/h | time to removal of MeBr (strain IMB-1 [3]; 0.76 mg (1.2 mM in the liquid), bottles containing 1.5×10^8 cells): ≤ 190 h | time to removal of MeBr (strain IMB-1 [3]; 0.76 mg, bottles containing 10-fold more cells): ≤ 35 h | time to removal of MeBr (strain IMB-1 [3]; 0.76 mg, bottles containing 100-fold more cells (3×10^9 cells/cm^3)): ≤ 2 h | time to oxidation of MeBr (strain IMB-1 [3]; 1.2 mM in the liquid, cells grown on MeBr (2.8×10^8 cells)): within one hour | time to remove a similar amount of MeBr (strain IMB-1 [3]; 1.2 mM in the liquid, glucose-grown cells (3.6×10^8 cells)): greater than 5 hours | time to removal of MeBr (strain IMB-1 [3]; 1.36 mg MeBr, 3×10^9 cells/cm^3): ≤ 7 h | MeBr Oxidation Rate (strain IMB-1 [3]; [9]): 0.063 mg/day | MeBr Oxidation Rate Constant (strain IMB-1 [3]; [9]): 0.083 per d | MeBr Oxidation Rate per Cell (strain IMB-1 [3]; [9]): 4.1 ×10^10 | CO2 Production Rate (strain IMB-1 [3]; [9]): 0.031 mg/day | MeBr Oxidation Rate (strain IMB-1 [3]; [10]): 0 mg/day | MeBr Oxidation Rate Constant (strain IMB-1 [3]; [10]): 0 per d | MeBr Oxidation Rate per Cell (strain IMB-1 [3]; [10]): 0 ×10^10 | CO2 Production Rate (strain IMB-1 [3]; [10]): 0.002 mg/day | MeBr Oxidation Rate (strain IMB-1 [3]; [11]): 0 mg/day | MeBr Oxidation Rate Constant (strain IMB-1 [3]; [11]): 0 per d | MeBr Oxidation Rate per Cell (strain IMB-1 [3]; [11]): 0 ×10^10 | CO2 Production Rate (strain IMB-1 [3]; [11]): 0 mg/day | MeBr Oxidation Rate (strain IMB-1 [3]; [12]): 0.555 mg/day | MeBr Oxidation Rate Constant (strain IMB-1 [3]; [12]): 0.73 per d | MeBr Oxidation Rate per Cell (strain IMB-1 [3]; [12]): 3.7 ×10^10 | CO2 Production Rate (strain IMB-1 [3]; [12]): 0.224 mg/day | MeBr Oxidation Rate (strain IMB-1 [3]; [13]): 0.180 mg/day | MeBr Oxidation Rate Constant (strain IMB-1 [3]; [13]): 0.13 per d | MeBr Oxidation Rate per Cell (strain IMB-1 [3]; [13]): 1.2 ×10^10 | CO2 Production Rate (strain IMB-1 [3]; [13]): 0.189 mg/day | MeBr Oxidation Rate (strain IMB-1 [3]; [14]): 0 mg/day | MeBr Oxidation Rate Constant (strain IMB-1 [3]; [14]): 0 per d | MeBr Oxidation Rate per Cell (strain IMB-1 [3]; [14]): 0 ×10^10 | CO2 Production Rate (strain IMB-1 [3]; [14]): 0 mg/day | MeBr Oxidation Rate (strain IMB-1 [3]; [15]): 6.53 mg/day | MeBr Oxidation Rate Constant (strain IMB-1 [3]; [15]): 8.6 per d | MeBr Oxidation Rate per Cell (strain IMB-1 [3]; [15]): 4.4 ×10^10 | CO2 Production Rate (strain IMB-1 [3]; [15]): 5.025 mg/day | MeBr Oxidation Rate (strain IMB-1 [3]; [16]): 3.52 mg/day | MeBr Oxidation Rate Constant (strain IMB-1 [3]; [16]): 2.59 per d | MeBr Oxidation Rate per Cell (strain IMB-1 [3]; [16]): 2.3 ×10^10 | CO2 Production Rate (strain IMB-1 [3]; [16]): 1.990 mg/day | MeBr Oxidation Rate (strain IMB-1 [3]; [17]): 6.07 mg/day | MeBr Oxidation Rate Constant (strain IMB-1 [3]; [17]): 1.14 per d | MeBr Oxidation Rate per Cell (strain IMB-1 [3]; [17]): 4.0 ×10^10 | CO2 Production Rate (strain IMB-1 [3]; [17]): 2.696 mg/day | MeBr removal from the headspace of flasks per cell (strain IMB-1 [3]; cultures grown on glucose): 8 ×10^−15 g MeBr/cell/hr | MeBr removal from the headspace of flasks per cell (strain IMB-1 [3]; strain IMB-1 grown on MeBr): 55 ×10^−15 g MeBr/cell/hr | time to consumption of added MeBr (strain IMB-1 [4]; 0.21 g added MeBr, by the third day of operation): ≤ 4 h | reduction of methyl bromide concentration during a single pass through the filter (strain IMB-1 [4]; after 2 weeks operation): up to 5 g/m^3 | time to removal of all added MeBr (strain IMB-1 [4]; after several equivalent additions of 9 g/m^3 MeBr): approximately 6 hours | time to removal of added MeBr (strain IMB-1 [4]; first addition of 0.21 g MeBr): 24 h | amount of MeBr oxidized (strain IMB-1 [4]; in 46 days, pulses of 0.21 g up to three times a day): 16 g and 16.2 g | time to oxidation of initial levels of methyl bromide (strain IMB-1 [4]; initial 9 g/m^3, washed cell suspensions): ≤ 24 h | amount of MeBr removed from the air supply (strain IMB-1 [5]): 80 g | killing of B. anthracis and its spores ([6]; Kolb and Schneiter 1950): kill | level at which methyl bromide functions as a microbicide and a pesticide ([6]; Schade and King 1977, tree nuts): about 25,000 ppm | CO2 Production Rate ([7]; 0.76 mg MeBr added): 0 mg/day | MeBr Oxidation Rate ([7]; 0.76 mg MeBr added): 0.029 mg/day | CO2 Production Rate ([7]; 1.36 mg MeBr added): 0 mg/day | MeBr Oxidation Rate ([7]; 1.36 mg MeBr added): 0.062 mg/day | CO2 Production Rate ([7]; 5.30 mg MeBr added): 0 mg/day | MeBr Oxidation Rate ([7]; 5.30 mg MeBr added): 0.208 mg/day | growth of strain IMB-1 on the substrate (in words) (strain IMB-1 [1]; [8]): grow using MeBr as a sole source of carbon and energy

CN(C)C [trimethylamine]
growth of strain IMB-1 on the substrate (in words) (strain IMB-1 [1]; [8]): support growth

CI [methyl iodide]
rate of MeBr oxidation, normalized for cell densities (strain IMB-1 [2]; cultures incubated with 2 μmoles Mel): 1.4 pmol/10^6 cells/h | rate of MeBr oxidation, normalized for cell densities (strain IMB-1 [2]; cultures incubated with 5 μmoles Mel): 1.1 pmol/10^6 cells/h | rate of MeBr oxidation, normalized for cell densities (strain IMB-1 [2]; cultures incubated with 8 μmoles Mel): 1.1 pmol/10^6 cells/h | rate of MeBr oxidation, normalized for cell densities (strain IMB-1 [2]; cultures incubated with 10 μmoles Mel): 1.4 pmol/10^6 cells/h | MeBr oxidized (strain IMB-1 [2]): 2.4 pmol/10^6 cells/h | growth of strain IMB-1 on the substrate (in words) (strain IMB-1 [1]; [8]): Growth was also obtained

CF [methyl fluoride]
MeBr oxidized (strain IMB-1 [2]): 0.0 pmol/10^6 cells/h | metabolized by strain IMB-1 (strain IMB-1 [1]): not metabolized | effect on uptake of MeBr or growth of IMB-1 on MeBr (strain IMB-1 [1]; 2-22 μmol/tube added): did not affect | growth of strain IMB-1 on the substrate (in words) (strain IMB-1 [1]; [8]): no growth occurred

C [methane]
growth of strain IMB-1 on the substrate (in words) (strain IMB-1 [1]; [8]): no growth occurred

O=C(O)/C=C/C(=O)O [fumarate]
growth of strain IMB-1 on the substrate (in words) (strain IMB-1 [1]; [8]): no growth occurred

CN [monomethylamine]
growth of strain IMB-1 on the substrate (in words) (strain IMB-1 [1]; [8]): support growth

O=C(O)CC(O)C(=O)O (stereo not shown) [malate]
growth of strain IMB-1 on the substrate (in words) (strain IMB-1 [1]; [8]): weak growth

CNC [dimethylamine]
growth of strain IMB-1 on the substrate (in words) (strain IMB-1 [1]): support growth

CO [methanol]
growth of strain IMB-1 on the substrate (in words) (strain IMB-1 [1]; [8]): no growth occurred
